Laboratory results: US12668589B2, “N-formamidopyrazoline derivative as P2X3 receptor antagonist and use thereof” (HANGZHOU WESTAN PHARMACEUTICAL TECHNOLOGY CO., LTD, priority 2020, dated 2026)

Columns and labels:
rP2X3 = biological target: T1, rP2X3 (Rattus norvegicus, UniProt P49654); assay: Inhibitory activity against P2X3 in rats (electrophysiological method); format: cell-based
T1 construct: expressed in transfected cells; host or cells: HEK293
T1 sequence (P49654 1-397): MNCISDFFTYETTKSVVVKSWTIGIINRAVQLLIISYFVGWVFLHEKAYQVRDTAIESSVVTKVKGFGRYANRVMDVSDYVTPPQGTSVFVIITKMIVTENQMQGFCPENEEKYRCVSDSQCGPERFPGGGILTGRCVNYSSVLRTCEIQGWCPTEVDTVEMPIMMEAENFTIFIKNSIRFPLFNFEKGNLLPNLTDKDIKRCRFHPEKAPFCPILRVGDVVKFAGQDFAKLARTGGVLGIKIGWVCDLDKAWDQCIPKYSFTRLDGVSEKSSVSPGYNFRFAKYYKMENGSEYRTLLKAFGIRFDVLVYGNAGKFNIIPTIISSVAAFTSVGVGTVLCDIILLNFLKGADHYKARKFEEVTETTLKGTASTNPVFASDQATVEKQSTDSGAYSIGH

gpP2X3 = biological target: T2, gpP2X3 (Cavia porcellus, UniProt H0VWY5); assay: Inhibitory activity against P2X3 in guinea pigs (electrophysiological method); format: cell-based; settings: guinea pig P2X3, electrophysiological method
T2 sequence (H0VWY5 1-391): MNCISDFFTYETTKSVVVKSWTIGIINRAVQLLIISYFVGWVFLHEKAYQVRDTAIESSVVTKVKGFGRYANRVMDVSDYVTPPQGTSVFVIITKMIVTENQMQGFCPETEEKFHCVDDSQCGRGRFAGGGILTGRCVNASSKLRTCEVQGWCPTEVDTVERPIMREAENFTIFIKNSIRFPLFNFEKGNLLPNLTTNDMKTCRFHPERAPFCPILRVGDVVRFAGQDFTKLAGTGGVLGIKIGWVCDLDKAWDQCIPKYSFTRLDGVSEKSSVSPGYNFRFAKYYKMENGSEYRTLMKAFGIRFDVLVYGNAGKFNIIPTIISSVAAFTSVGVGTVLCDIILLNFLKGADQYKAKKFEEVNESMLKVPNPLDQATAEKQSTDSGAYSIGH

human P2X2/3 = biological target: T3, human P2X2/3 (Homo sapiens, UniProt P56373+Q9UBL9); assay: Inhibitory activity against human P2X2/3 (electrophysiological method); format: cell-based; settings: read-out: hP2X2/3 (IC50)
T3 construct: expressed in transfected cells; host or cells: HEK293
T3 sequence (P56373 1-397): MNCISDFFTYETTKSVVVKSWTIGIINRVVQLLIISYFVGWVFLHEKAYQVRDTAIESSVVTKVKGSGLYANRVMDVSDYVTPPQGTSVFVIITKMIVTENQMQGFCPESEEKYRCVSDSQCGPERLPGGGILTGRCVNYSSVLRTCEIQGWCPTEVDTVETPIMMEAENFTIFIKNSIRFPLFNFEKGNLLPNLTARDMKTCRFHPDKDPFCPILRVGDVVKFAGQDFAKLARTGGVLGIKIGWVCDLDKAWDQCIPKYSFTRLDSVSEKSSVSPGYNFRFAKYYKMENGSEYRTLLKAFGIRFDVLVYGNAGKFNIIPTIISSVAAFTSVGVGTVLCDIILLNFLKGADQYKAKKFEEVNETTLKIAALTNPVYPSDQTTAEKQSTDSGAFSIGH
T3 sequence (Q9UBL9 1-471): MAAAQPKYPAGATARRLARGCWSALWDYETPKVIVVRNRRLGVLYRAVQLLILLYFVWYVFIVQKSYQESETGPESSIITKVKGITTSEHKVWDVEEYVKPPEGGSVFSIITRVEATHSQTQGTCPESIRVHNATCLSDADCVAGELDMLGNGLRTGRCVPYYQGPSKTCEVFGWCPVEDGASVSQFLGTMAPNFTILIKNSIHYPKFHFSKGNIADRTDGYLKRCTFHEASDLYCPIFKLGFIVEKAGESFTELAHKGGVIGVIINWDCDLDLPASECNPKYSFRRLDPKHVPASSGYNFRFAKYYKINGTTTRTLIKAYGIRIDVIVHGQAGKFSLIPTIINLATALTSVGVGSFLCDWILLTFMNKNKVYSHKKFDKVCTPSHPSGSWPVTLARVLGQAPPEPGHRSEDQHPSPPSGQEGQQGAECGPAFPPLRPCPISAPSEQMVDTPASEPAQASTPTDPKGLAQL

human P2X4 = biological target: T4, human P2X4 (Homo sapiens, UniProt Q99571); assay: Inhibitory activity against human P2X4 (electrophysiological method); format: cell-based; settings: read-out: hP2X4 (IC50)
T4 construct: expressed in transfected cells; host or cells: HEK293
T4 sequence (Q99571 1-388): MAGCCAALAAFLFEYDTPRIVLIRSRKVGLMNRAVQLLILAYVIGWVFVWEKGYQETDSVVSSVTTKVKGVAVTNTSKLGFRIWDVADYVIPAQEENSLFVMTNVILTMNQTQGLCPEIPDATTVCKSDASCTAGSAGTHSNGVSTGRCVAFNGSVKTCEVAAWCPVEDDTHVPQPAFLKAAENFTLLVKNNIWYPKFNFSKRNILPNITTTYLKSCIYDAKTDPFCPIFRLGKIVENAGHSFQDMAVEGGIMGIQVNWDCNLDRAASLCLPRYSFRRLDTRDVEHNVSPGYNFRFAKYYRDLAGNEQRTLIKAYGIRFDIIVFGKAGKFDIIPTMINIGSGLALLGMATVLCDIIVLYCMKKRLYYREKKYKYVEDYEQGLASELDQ

human PAR-1 = biological target: T5, human PAR-1 (Homo sapiens, UniProt P25116); assay: Inhibitory activity against PAR-1, calcium ion flux fluorescence method (FLIPR); format: cell-based; settings: HEK293/Ga15 cells expressing human PAR-1, TFLLR-NH2 10 μM, starting concentration 30 μM
T5 construct: host or cells: HEK293/Ga15 recombinant cell line
T5 sequence (P25116 22-425): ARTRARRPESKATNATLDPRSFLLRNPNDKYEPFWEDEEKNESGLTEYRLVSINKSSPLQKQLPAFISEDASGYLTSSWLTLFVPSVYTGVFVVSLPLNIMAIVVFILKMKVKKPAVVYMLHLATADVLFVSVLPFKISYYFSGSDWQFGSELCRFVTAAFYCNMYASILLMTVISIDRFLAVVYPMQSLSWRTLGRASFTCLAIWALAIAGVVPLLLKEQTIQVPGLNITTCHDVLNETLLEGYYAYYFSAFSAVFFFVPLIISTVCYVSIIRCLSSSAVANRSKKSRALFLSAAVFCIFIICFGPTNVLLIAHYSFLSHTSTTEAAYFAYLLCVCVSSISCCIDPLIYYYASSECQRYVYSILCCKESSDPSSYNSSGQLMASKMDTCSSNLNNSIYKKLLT
Protocol: The inhibitory activity of the title compounds against human PAR-1 was determined by a calcium ion flux fluorescence method (an FLIPR method). The method thereof was reported in the literature of Zhong et al. [Zhong et al. J Biomol Struct Dyn, 2017, 35(13):2853].
An HEK293/Ga15 recombinant cell line (HD Biosciences, Shanghai, China) stably expressing human PAR-1 was cultured in a DMEM (Thermo Fisher Scientific, Shanghai) culture solution (containing 10% calf serum, 800 μg/mL G418). Incubator conditions were 37° C. and an air humidity with 5% CO2.
On the first day, 20 μL per well of PAR-1 cells at a concentration of 4E+5 cells/mL were seeded in a 384-well analysis plate (Corning 3712). […] On the second day, a culture solution in each well was poured off. Then, 20 μL of 1×loading dye (2 μM Fluo-8 AM in 1×HBSS with 20 mM HEPES, 1 mM Probenecid, 0.025% Pluronic F-127 assay buffer) was added in each well. The cell analysis plate was cultured for 1 hour at a room temperature.
The compounds were dissolved into 100% DMSO to prepare a 10 mM stock solution, which was stored at −20° C. On the day of use, the compound stock solution was thawed at a room temperature. Each compound was subjected to 1:3 serial dilution at 11 concentration points with a DMEM culture solution with a starting concentration of 30 μM. Each compound was subjected to double dilution for testing. A positive control compound was diluted in the same way with SCH79797 with a starting concentration of 30 μM.
The cell analysis plate was placed in a FLIPR instrument (Molecular Device) and 10 μL of compounds (3× of a final concentration) in a compound plate was added to corresponding wells of the cell analysis plate. After 10 minutes, 10 μL of TFLLR-NH2 (TFA) (a final concentration of 10 μM) was added to each well to stimulate generation of intracellular calcium flux signals. Ca^++-dependent fluorescence signals were continuously monitored at excitation wavelengths of 470/495 nm and emission wavelengths of 515/575 nm to analyze the inhibitory activity of the compounds.
Data were collected and analyzed by using an FLIPR program. The inhibitory (or agonistic) activity of the compounds at each concentration was assessed by fluorescence peaks. IC50 values of the compounds were calculated by using EXCEL and PRISM programs.

human P2X3 [1] = biological target: T6, human P2X3 (Homo sapiens, UniProt P56373); assay: cell-based
T6 sequence (P56373 1-397): T3 sequence (P56373 1-397)

human P2X3 [2] = biological target: T6, human P2X3; assay: Inhibitory activity against human P2X3, perforated patch clamp (electrophysiological method); settings: read-out: hP2X3 (IC50), transfected HEK293 cells, agonist ATP 1 μM, compounds pre-administered for 2 minutes

| IC50 (rP2X3) | IC50 (gpP2X3) | IC50 (human P2X2/3) | IC50 (human P2X4) | IC50 (human PAR-1) | IC50 (human P2X3 [1]) | IC50 (human P2X3 [2]) | Compound |
| --- | --- | --- | --- | --- | --- | --- | --- |
| 103 nM | 359 nM | 1150 nM | > 20000 nM | > 30000 nM | 38 nM |  | Cc1ccc(C2=NN(C(=O)N[C@H](C)c3ccc(C(F)(F)F)nc3)C[C@@H]2N2CCOC2=O)nc1 [Compound 23, (S)-4-(2-oxooxazolidin-3-yl)-3-(5-methylpyridin-2-yl)-N-((R)-1-(6-(trifluoromethyl)pyridin-3-yl)ethyl)-4,5-dihydro-1H-pyrazol-1-carboxamide] |
|  |  |  |  |  |  | 151 nM | (S)-4-(3-oxomorpholin-4-yl)-3-(4-methylphenyl])-N- ((R)-1-(3-methyl-1,2,4-oxadiazol-5-yl)ethyl)-4,5-d ihydro-1H-pyrazol-1-carboxamide [Compound 46] |
